Data from patent US20110200686A1, “COMPOSITIONS OF MODULATORS OF THE WNT/B-CATENIN PATHWAY AND AN N-CINNAMYL-N'BENZHYDRYL PIPERAZINE AND THEIR USE IN TREATING NEOPLASTIC CONDITIONS INCLUDING MALIGNANT MELANOMA” (UNIVERSITY OG WASHINGTON, priority 2008, published 2011).

Assays:
[1] = tested on: B16 melanoma cells; assay: Cell proliferation assay, B16 murine melanoma cells; type: cell-based; conditions: NaCl 20 mM, negative control, FIG. 3B
Experimental: For cell counts by hematocytometer, cells were plated at a uniform density (usually between 10,000 to 25,000 cells per well) in a 12 or 24 well tissue culture plate in the appropriate media supplemented with 2% FBS. Cells were then incubated at 37° C. at 5% CO2 for three to seven days based on individual cell doubling time. At the end of the timecourse, cells were trypsinized, resuspended in the appropriate media, and counted using a standard hematocytometer. Dead cells were identified by 0.4% Trypan Blue stain. Cell proliferation experiments were performed with a minimum of six biologic replicates. […] For relative cell proliferation assays of B16:GFP cells incubated with lithium chloride or sodium chloride, cell proliferation was measured by relative firefly luciferase units (Promega; Madison, Wis.).

[2] = tested on: GSK-3; conditions: cited from earlier work; for selectivity for GSK-3: literature values
[3] = tested on: Wnt/β-catenin pathway; conditions: positive control, known from Zhang et al. 2007; cited from earlier work
[4] = tested on: Wnt/β-catenin pathway; assay: Wnt/β-catenin-responsive (TCF/LEF) luciferase reporter assay in melanoma cells; type: cell-based, human
Experimental: (§1) Wnt3a conditioned media was collected from sub-confluent melanoma cell lines, and this media was tested for its ability to activate Wnt/β-catenin signaling in UACC 1273 melanoma cells that were stably transduced with a Wnt/β-catenin-responsive firefly luciferase reporter and a constitutive Renilla luciferase gene used for normalization (Cignal TCF/LEF transcriptional reporter construct; SABiosciences, Frederick, Md.). Conditioned media was spun down to clear cell debris and then incubated with reporter cells overnight. Activation of the Wnt/β-catenin reporter was measured using a DLR assay kit (Promega; Madison, Wis.).
(§2) Flunarizine and QS11 were solubilized in dimethyl-sulfoxide (DMSO) vehicle, which was used as a control (vol/vol) for the described experiments. Drug incubations were 24-48 hours in duration.
A TCF/LEF transcriptional reporter gene cell line used to monitor the activation of the Wnt signal transduction pathway was utilized in a high throughput screen of a library of chemical compounds to identify compounds that synergize with lithium in activating the Wnt/β-catenin pathway.

[5] = tested on: human melanoma cells; assay: Proliferation of human melanoma cells measured by Renilla luciferase activity; type: cell-based; conditions: flunarizine 1 μM alone, FIG. 5
Experimental: as §1, §2

SMILES: [Cl-].[Na+] [NaCl, Sodium chloride]
- effect on B16 melanoma cell growth [1]: no effect on cell growth

SMILES: O=[N+]([O-])c1ccc(NCCNc2ncc(-c3ncc[nH]3)c(-c3ccc(Cl)cc3Cl)n2)nc1 [CHIR-837]
- selectivity for GSK-3 [2]: > 5,000 fold

SMILES: OC[C@H](Cc1ccccc1)Nc1nc(Oc2ccc3c(c2)CCC3)nc2c1ncn2Cc1ccc(-c2ccccc2)cc1 [QS11]
- synergy with Wnt-3a in activating the Wnt pathway [3]: act synergistically with Wnt-3a to activate the Wnt pathway

SMILES: Fc1ccc(C(c2ccc(F)cc2)N2CCN(CC=Cc3ccccc3)CC2)cc1 [flunarizine, 1-[bis(4-fluorophenyl)methyl]-4-cinnamyl-piperazine]
- activation of Wnt-responsive reporter together with Wnt-3a conditioned media ([4]; flunarizine 1 μM, human melanoma cells, FIG. 6): synergizes with Wnt-3a conditioned media to activate a Wnt-responsive reporter
- enhancement of lithium-induced activation of the TCF/LEF reporter gene ([4]; flunarizine with lithium, FIG. 4): ~100 fold
- proliferation of human melanoma cells (Renilla luciferase activity) [5]: inhibited
